From ChEMBL document CHEMBL3046250, “Synthesis and anticonvulsant evaluation of 3-substituted-4-(4-hexyloxyphenyl)-4H-1,2,4-triazoles” (Med Chem Res, 2009) come the findings set out here.

The nature of data set [1]: Neurotoxicity in Mus musculus (mouse) by rotarod test. In kind it is toxicity, organism-based. The conditions noted are these: in vivo. A general note: In the rotarod test animals must keep their balance on a rotating rod.
The subject of data set [2] is Mus musculus. Put plainly: Anticonvulsant activity in Mus musculus (mouse) assessed protection against subcutaneous pentylenetetrazole-induced seizures. In kind it is functional. The conditions noted are these: sc.
Data set [3] in a line: Protective index, ratio of TD50 for neurotoxicity to ED50 for anticonvulsant activity in ip dosed Mus musculus C57B/6 (mouse). In kind it is toxicity, organism-based. The conditions noted are these: in vivo, read-out: Ratio TD50/ED50.
Data set [4] concerns Mus musculus. Put plainly: Anticonvulsant activity in ip dosed Mus musculus C57B/6 (mouse) assessed as protection against maximal electroshock-induced seizures. In kind it is functional. The conditions noted are these: C57B/6, ip. (The maximal electroshock test induces tonic seizures with an electrical stimulus.)
Data set [5] can be described thus: Neurotoxicity in ip dosed Mus musculus C57B/6 (mouse) assessed as inability to maintain equilibrium measured after 30 min by rotarod test. The class given is toxicity, organism-based. As to conditions: in vivo.

Usually TD50 stands for the 50% point of the dose-response relation for the toxic effect studied. Usually ED50 stands for the dose at which the effect has come halfway, by size or by number of responders.

`O=C1CCc2cc(OCc3ccccc3)ccc2N1` returned a TD50 in data set [1] of over 300 mg/kg.

`c1ccc(COc2ccc3c(c2)CCc2nncn2-3)cc1` came in with an ED50 in the data set on Mus musculus [2] of 24 mg/kg.

As to `CCCCCCOc1ccc2c(c1)CCc1nncn1-2`, the selectivity ratio in data set [3] stood at 2.2.

`CCCCCCOc1ccc(-n2cnnc2CCC)cc1`: the median effective dose (ED50) with Mus musculus [4] amounted to 5.7 mg/kg. Also, the selectivity ratio in data set [3] was 11.5. Further, the TD50 at 0.5 h in data set [5] amounted to 65.7 mg/kg.

As for `CCCCCCOc1ccc(-n2cnnc2CCCC)cc1`, the ED50 in the data set on Mus musculus [4] amounted to 13.6 mg/kg. In addition, the selectivity ratio in data set [3] is 8.1. Moreover, the TD50 at 0.5 h in data set [5] was found to be 110 mg/kg.

In the case of `CCCCCCOc1ccc(-n2cnnc2CCCCC)cc1`, the 50% effective dose (ED50) in the data set on Mus musculus [4] came out at 32.8 mg/kg. Also, the selectivity ratio in data set [3] was determined as 5.8. Also, the TD50 at 0.5 h in data set [5] came to 189 mg/kg.

In the case of `CCCCCCOc1ccc(-n2cnnc2CCCCCC)cc1`, the ED50 in the data set on Mus musculus [4] was over 40 mg/kg.

Regarding `CCCCCCCc1nncn1-c1ccc(OCCCCCC)cc1`, in the data set on Mus musculus [4], the ED50 is over 40 mg/kg.

`CCCCCCCCCc1nncn1-c1ccc(OCCCCCC)cc1`: the median effective dose (ED50) in the data set with Mus musculus [4] is over 40 mg/kg.

Consider `CCCCCCOc1ccc(-n2cnnc2-c2ccccc2)cc1`, for which, in the data set with Mus musculus [4], the ED50 amounted to 19 mg/kg. Moreover, the selectivity ratio in data set [3] came out at 7.2. Also, in data set [5], the TD50 at 0.5 h came to 137 mg/kg.

Take `CCCCCCOc1ccc(-n2cnnc2-c2ccc(F)cc2)cc1`: in the data set with Mus musculus [4], the ED50 was 22 mg/kg. In data set [3], the selectivity ratio stood at 4.2. Further, the TD50 at 0.5 h in data set [5] turned out to be 91.3 mg/kg.

For `CCCCCCOc1ccc(-n2cnnc2-c2ccccc2F)cc1`, the ED50 in the data set on Mus musculus [4] turned out to be 20.2 mg/kg. The selectivity ratio in data set [3] was 5. Also, in data set [5], the TD50 at 0.5 h is 101 mg/kg.

With `CCCCCCOc1ccc(-n2cnnc2-c2cccc(F)c2)cc1`, in the data set with Mus musculus [4], the ED50 amounted to 27.4 mg/kg. In addition, in data set [3], the selectivity ratio stood at 3.8. In addition, the TD50 at 0.5 h in data set [5] was 104 mg/kg.

Turning to `CCCCCCOc1ccc(-n2cnnc2-c2ccc(Cl)cc2)cc1`, the ED50 with Mus musculus [4] came out at 19.7 mg/kg. Moreover, the selectivity ratio in data set [3] worked out at 6.9. In data set [5], the TD50 at 0.5 h was 137 mg/kg.

For `CCCCCCOc1ccc(-n2cnnc2-c2ccccc2Cl)cc1`, the ED50 in the data set with Mus musculus [4] came out at 13.2 mg/kg. Further, the selectivity ratio in data set [3] was found to be 6.9. Also, the TD50 at 0.5 h in data set [5] is 91.2 mg/kg.

`CCCCCCOc1ccc(-n2cnnc2-c2ccc(C)cc2)cc1`: the median effective dose (ED50) in the data set with Mus musculus [4] stood at 11.4 mg/kg. In data set [3], the selectivity ratio was 8.8. In addition, the TD50 at 0.5 h in data set [5] was 101 mg/kg.

With `CCCCCCOc1ccc(-n2cnnc2-c2ccc(OC)cc2)cc1`, the ED50 with Mus musculus [4] stood at 15.8 mg/kg. In addition, the selectivity ratio in data set [3] stood at 7.6. Further, the TD50 at 0.5 h in data set [5] worked out at 120 mg/kg.

For the molecule `CCCCCCOc1ccc(-n2cnnc2Cc2ccccc2)cc1`, in the data set with Mus musculus [4], the 50% effective dose (ED50) amounted to 19 mg/kg. Also, the selectivity ratio in data set [3] turned out to be 6.9. Besides, the TD50 at 0.5 h in data set [5] is 131 mg/kg.

As to `CCCCCCOc1ccc(-n2cnnc2CCc2ccccc2)cc1`, the 50% effective dose (ED50) with Mus musculus [4] turned out to be 27.4 mg/kg. Moreover, the selectivity ratio in data set [3] is 5.7. In addition, the TD50 at 0.5 h in data set [5] came to 158 mg/kg.

For the molecule `CCCCCCOc1ccc(-n2cnnc2)cc1`, the 50% effective dose (ED50) with Mus musculus [4] came to 9.8 mg/kg. The selectivity ratio in data set [3] amounted to 11.4. Further, the TD50 at 0.5 h in data set [5] was determined as 112 mg/kg.

Regarding `CCCCCCOc1ccc(-n2cnnc2C)cc1`, the ED50 in the data set with Mus musculus [4] was found to be 22.8 mg/kg. In data set [3], the selectivity ratio was found to be 4.9. Moreover, in data set [5], the TD50 at 0.5 h is 114 mg/kg.

On to `CCCCCCOc1ccc(-n2cnnc2CC)cc1`, for which, in data set [3], the selectivity ratio was 4.7.
